One series has as its system HIV-1. Also noted: method as in PMID 32229336, PMID 21561135, PMID 33172265, PMID 34445872. To be noted: other tiglianes from the literature; ref [25],[26],[27],[28],[29]; read-out: IC50 anti-HIV-1 activity; cited from earlier work.
In another series the test system is HIV-2 ROD. Briefly: anti-HIV replication assay, HIV-2 ROD in MT-4 cells (MTS/PES viability readout). The series is classed as cell-based. Conditions: Human immunodeficiency virus 2, MT4, 120 h, read-out: IC50 HIV-2. As to the method: (§1) The MT-4 cell line was a kind gift from Dr. L. Montagner (at that time at the Pasteur Institute; Paris, France). This cell line was cultured in RPMI medium (Thermo Fisher Scientific, Waltham, MA, USA) containing 10% fetal bovine serum (FBS; Thermo Fisher Scientific, Waltham, MA, USA) and 2 mM L-glutamine (Thermo Fisher Scientific, Waltham, MA, USA).
(§2) The HIV-1 strain NL4.3 (X4) and HIV-2 strain ROD (X4/R5) were obtained from the National Institute of Allergy and Infectious Disease AIDS program (Bethesda, MD, USA) and the Medical Research Council (MRC, London, UK), respectively. The HIV-1 strain HE (X4/R5) was originally isolated from a AIDS patient and was routinely cultured in MT-4 cells. The 50% tissue culture infectious doses of the virus stocks were used in the infection assays.
(§3) To determine the anti-HIV-activity of the compounds, MT-4 cells (5 × 10^4 cells) were treated with 5-fold dilutions of the compounds for 30 min at 37 °C, 5% CO2 in 96-well-plates. After 30 min, cells were infected with 100 TCID50 (tissue culture infective dose 50%) HIV-1 (NL4.3) or HIV-2 (ROD) virus stocks. After five days of incubation (37 °C, 5% CO2), the cytopathic effect was checked microscopically, and cell viability was evaluated using the MTS/PES-based CellTiter 96 Aqueous One Solution Cell Proliferation assay (Promega Madison, WI, USA). Absorbance at 490 nm was measured using the VersaMax ELISATM microplate reader (Molecular Devices) and analyzed with the SoftMax Pro software (Molecular Devices, Version 4.0, www.moleculardevices.com, accessed on 10 January 2015). The IC50-values were calculated based on the absorbance signals measured in the negative (i.e., untreated and uninfected cells) and positive (i.e., untreated virus-infected cells) control samples.

The next series concerns HIV-1 NL4.3. Briefly: anti-HIV replication assay, HIV-1 NL4.3 in MT-4 cells (MTS/PES viability readout). The series is classed as cell-based. How it is done:
as §1, §2, §3

The nature of series [1]: cellular toxicity in uninfected MT-4 cells (MTS method). To be noted: human. Type of series: cell-based. As to the method: as §1, §3
The CC50 or 50% cellular cytoxic concentration of compounds was determined from the reduction of viability of uninfected MT-4 cells or PBMCs exposed to the compounds, as measured by the MTS method described above.
For orientation: Tetrazolium dyes change colour on reduction, which living cells bring about.

Where [2] appears, read: Human immunodeficiency virus 1, MT4, 120 h, read-out: IC50 HIV-1.
[3] abbreviates: Human immunodeficiency virus 1, MT4, read-out: IC50 values, anti-HIV activity.

Where two headings read alike, the source gives them in different places. Some results are limits rather than exact numbers.

As for `CCCCCCCC(=O)O[C@@]12[C@H](OC(=O)c3ccccc3)[C@@H](C)[C@]3(O)[C@@H]4C=C(C)C(=O)[C@@]4(O)[C@H](O)C(CO)=C[C@H]3[C@@H]1C2(C)C` [stelleracin C], the IC50 in the series on HIV-1 was 0.0023 µM.

With `CC(=O)OCC1=C[C@H]2[C@@H]3C(C)(C)[C@]3(OC(C)=O)[C@H](OC(=O)c3ccccc3)[C@@H](C)[C@]2(O)[C@@H]2C=C(C)C(=O)[C@@H]2C1` [Compound 8, 13α,20-diacetylohy-12β-benzoyloxy-4-epi-4-deoxyphorbol], the half-inhibitory concentration (IC50) with HIV-2 ROD is 1.1 ± 0.8 µM; with HIV-1 NL4.3 (setting [2]), 3.3 ± 1.8 µM; with HIV-1 NL4.3 (setting [3]), 1.1 to 7.47 µM. Besides, the CC50 at 5 days in series [1] is 20.8 ± 5.6 µM.

`CC(=O)O[C@@]12[C@H](OC(=O)c3ccccc3)[C@@H](C)[C@]3(O)[C@@H]4C=C(C)C(=O)[C@@H]4CC(C)=C[C@H]3[C@@H]1C2(C)C` [Compound 1, 13α-Acetyloxy-12β-benzoyloxy-4-epi-4,20-dideoxyphorbol]: the figures for the IC50 in the series on HIV-2 ROD and in the series with HIV-1 NL4.3 (setting [2]) were 9.4 ± 1.4 µM and above 42 µM, respectively. For the same compound, the 50% cytotoxic concentration (CC50) at 5 days in series [1] worked out at 42 µM.

With `CC(=O)O[C@@]12[C@H](OC(=O)c3ccccc3)[C@@H](C)[C@]3(O)[C@@H]4C=C(C)C(=O)[C@H]4CC(C)=C[C@H]3[C@@H]1C2(C)C` [Compound 2, 13α-Acetyloxy-12β-benzoyloxy-4,20-dideoxyphorbol], the IC50 in the series with HIV-2 ROD is 1.7 ± 1.3 µM; with HIV-1 NL4.3 (setting [2]) it was 7.5 ± 0.2 µM; in the series on HIV-1 NL4.3 (setting [3]) it was 1.1 to 7.47 µM. In addition, the CC50 at 5 days in series [1] came to 94 µM.

As to `c1cc(CN2CCCNCCNCCCNCC2)ccc1CN1CCCNCCNCCCNCC1` [AMD3100, reference compound], the half-maximal inhibitory concentration (IC50) came out at 0.0075 ± 0.0005 µM with HIV-2 ROD (HIV-2 ROD replication in MT-4 cells, five days) and 0.008 ± 0.002 µM with HIV-1 NL4.3 (Human immunodeficiency virus 1, MT4, 120 h, HIV-1 NL4.3 replication in MT-4 cells, five days, read-out: IC50 HIV-1). In series [1], the CC50 at 5 days was above 10 µM.

Take `CC(=O)O[C@@H]1[C@@H](C)[C@]2(O)[C@@H]3C=C(C)C(=O)[C@@H]3CC(C)=C[C@H]2[C@@H]2C(C)(C)[C@]12OC(=O)CC(C)C` [Compound 4, 12β-Acetyloxy-13α-isovaleryloxy-4-epi-4,20-dideoxyphorbol]: the IC50 with HIV-2 ROD and in the series on HIV-1 NL4.3 (setting [2]) was above 52 µM in each case. The 50% cytotoxic concentration (CC50) at 5 days in series [1] is 52 µM.

For the compound `CCCCCCCCCCCCCCCC(=O)O[C@@]12C[C@@H](C)[C@@]3(O)[C@@H](C=C(CO)C[C@]4(O)C(=O)C(C)=C[C@@H]34)[C@@H]1C2(C)C` [12-deoxyphorbol-13-hexadecanoate], the IC50 with HIV-1 is 0.022 µM.

For `CC(=O)O[C@@H]1[C@@H](C)[C@]2(O)[C@@H]3C=C(C)C(=O)[C@@H]3CC(C)=C[C@H]2[C@@H]2C(C)(C)[C@]12OC(=O)C(C)C` [Compound 6, 12β-acetyloxy-13α-isobutanoyloxy-4-epi-4,20-dideoxyphorbol], the IC50 in the series on HIV-2 ROD and in the series with HIV-1 NL4.3 (setting [2]) was above 101 µM each time. The same compound came in with a CC50 at 5 days in series [1] of 101 µM.

With `C[C@H](Cn1cnc2c(N)ncnc21)OCP(=O)(O)O` [PMPA, reference compound], the results for the IC50 in the series on HIV-2 ROD and with HIV-1 NL4.3 (setting [2]) were 0.7 ± 0.5 µM and 2.4 ± 0.7 µM, respectively. This compound came in with a CC50 at 5 days in series [1] above 100 µM.

As for `CC1=C[C@H]2[C@@H]3C(C)(C)[C@]3(OC(=O)CC(C)C)[C@H](OC(=O)c3ccccc3)[C@@H](C)[C@]2(O)[C@@H]2C=C(C)C(=O)[C@@H]2C1` [Compound 3, 12β-Benzoyloxy-13α-isovaleryloxy-4-epi-4,20-dideoxyphorbol], the 50% inhibitory concentration (IC50) in the series with HIV-2 ROD and with HIV-1 NL4.3 (setting [2]) was above 18 µM each time. This compound returned a half-maximal cytotoxic concentration (CC50) at 5 days in series [1] of 17.6 ± 0.3 µM.

Turning to `CC1=C[C@H]2[C@@H]3C(C)(C)[C@]3(OC(=O)C(C)C)[C@H](OC(=O)c3ccccc3)[C@@H](C)[C@]2(O)[C@@H]2C=C(C)C(=O)[C@@H]2C1` [Compound 5, 12β-benzoyloxy-13α-isobutanoyloxy-4-epi-4,20-dideoxyphforbol], the IC50 in the series on HIV-2 ROD was 4.6 ± 2.3 µM; in the series with HIV-1 NL4.3 (setting [2]), above 34 µM. This compound gave a CC50 at 5 days in series [1] of 33.5 ± 0.4 µM.

For orientation: IC50 means the concentration that gives 50% inhibition. Broadly, the CC50 is the concentration that lowers cell viability or growth by half. The low end stands for harm at low concentration, the high end for better tolerance by the cells.

The record behind these values is article PMC11990108, “Anti-HIV Activity of Tigliane Derivatives from Euphorbia nicaeensis Roots” (Molecules, 2025).
